Measured values: patent US8192962B2, “Processes for detecting toxic substances” (Daikin Industries, Ltd., priority 2001, dated 2012)

Tested on: Energy system protein genes
Assay: DNA chip mRNA expression in yeast, energy system protein genes (Table 4)
Type: cell-based, Saccharomyces cerevisiae S288C
Description: Yeast (Saccharomyces cerevisiae S288C (α SUC2mal mel gap2 CUP1)) were incubated at 25° C. on YPD medium (yeast extract 1%, polypepton 2%, glucose 2%). One of toxic chemical substances was added to the cells at logarithmic growth phase, and the cells were further incubated for two hours. Cells were cultured without any chemical substance in the same condition, and were used as control. Concentrations of the chemical substances were defined to inhibit the growth of the yeast but not lead to death.
After completion of the incubation, the culture was centrifuged to collect the cells. To the cells, sodium acetate buffer (50 mM sodium acetate, 10 mM EDTA, 1% SDS) was added, and the mixture was shaken at 65° C. for five minutes, followed by returning to room temperature, and obtaining the supernatant, of which the procedures were repeated two times. To the supernatant, ½ amount of a solution of phenol/chloroform was added, and the mixture was centrifuged to give a supernatant, which was added with an equal amount of chloroform, and the mixture was centrifuged to give a supernatant. To the supernatant, an equal amount of isopropanol containing 0.3 M sodium acetate was added, and the mixture was allowed to stand at room temperature for 30 minutes, after which the mixture was centrifuged to give a sediment of the whole RNAs. Seventy % ethanol was added to the sediment, and the mixture was again centrifuged to give a sediment, which was then dried and dissolved in water. mRNA was isolated from the whole RNAs as followings. In view of the fact that a poly A chain is attached to the 3′ terminus of mRNA, a polynucleotide having a poly T structure which was immobilized on the surface of latex beads was used to trap the mRNA, and then the mRNA was washed and eluted with spine column (Oligotex-dT30<Super>mRNA Purification Kit, Takara). Reverse transcription of the mRNA was conducted with a reverse transcriptase (Super Script II Reverse Transcriptase; catalogue No. 18064-014, GibcoBRL) using fluorescence-labeled nucleotides to give cDNAs that were introduced with Cy3-dUTP or Cy5-dUTP during the reverse transcription.
The labeled cDNAs were dissolved in TE buffer (10mM Tris-HCl/1 mM EDTA, pH8.0), and the solution was dropped on the DNA chip containing the whole genes of yeast (DNA Chip Research Inc. Japan) so that the cDNAs were hybridized on the DNA chip at 65° C. for over 12 hours. The fluoresces intensity of the DNA chip was read with a scanner, and the ratio relative to the fluorescence intensity resulting from the absence of chemical substance was estimated as the following, which is shown in Tables 1 to 9: […]

Measured: The level of expressed mRNA in the presence of chemical substance/The level of expressed mRNA in the absence of chemical substance

O=[N+]([O-])c1cc[n+]([O-])c2ccccc12 [(5), 4-nitroquinolin-N-oxide]
1.0: yeast gene YBL099W, cells incubated two hours with the chemical substance | yeast gene YCR046C, cells incubated two hours with the chemical substance | yeast gene YDL107W, cells incubated two hours with the chemical substance | yeast gene YGR087C, cells incubated two hours with the chemical substance | yeast gene YGR174C, cells incubated two hours with the chemical substance | yeast gene YIL160C | yeast gene YJL121C, cells incubated two hours with the chemical substance | yeast gene YKR009C, cells incubated two hours with the chemical substance | yeast gene YLR377C, cells incubated two hours with the chemical substance | yeast gene YMR267W, cells incubated two hours with the chemical substance, 25° C., YPD medium | yeast gene YOR178C, cells incubated two hours with the chemical substance
1.9: yeast gene YDR377W, cells incubated two hours with the chemical substance | yeast gene YOL086C, cells incubated two hours with the chemical substance
2.0: yeast gene YDL067C, cells incubated two hours with the chemical substance
0.5: yeast gene YCL040W | yeast gene YDL174C
0.7: yeast gene YER178W | yeast gene YGL256W, cells incubated two hours with the chemical substance | yeast gene YGR062C, cells incubated two hours with the chemical substance, 25° C., YPD medium | yeast gene YJL052W | yeast gene YJR155W | yeast gene YLR395C, cells incubated two hours with the chemical substance | yeast gene YMR323W, cells incubated two hours with the chemical substance
1.1: yeast gene YCR012W | yeast gene YDR001C | yeast gene YDR231C | yeast gene YGL018C, cells incubated two hours with the chemical substance | yeast gene YGL205W, cells incubated two hours with the chemical substance | yeast gene YGR192C | yeast gene YKR097W | yeast gene YPL171C
1.4: yeast gene YOR142W, cells incubated two hours with the chemical substance
1.7: yeast gene YDL021W | yeast gene YDL181W, cells incubated two hours with the chemical substance | yeast gene YLR044C, cells incubated two hours with the chemical substance | yeast gene YML129C, cells incubated two hours with the chemical substance
1.8: yeast gene YLR038C, cells incubated two hours with the chemical substance
1.6: yeast gene YBL058W, cells incubated two hours with the chemical substance | yeast gene YIR031C, cells incubated two hours with the chemical substance | yeast gene YJL166W, cells incubated two hours with the chemical substance | yeast gene YKL060C, cells incubated two hours with the chemical substance | yeast gene YLL041C, cells incubated two hours with the chemical substance | yeast gene YLR284C, cells incubated two hours with the chemical substance | yeast gene YLR354C, cells incubated two hours with the chemical substance | yeast gene YNL331C | yeast gene YPL061W, cells incubated two hours with the chemical substance
0.6: yeast gene YLR304C, cells incubated two hours with the chemical substance | yeast gene YML120C, cells incubated two hours with the chemical substance | yeast gene YNL071W | yeast gene YPL262W, cells incubated two hours with the chemical substance
1.5: yeast gene YKL016C, cells incubated two hours with the chemical substance | yeast gene YKL141W, cells incubated two hours with the chemical substance | yeast gene YPL031C, cells incubated two hours with the chemical substance | yeast gene YPL088W | yeast gene YPL276W, cells incubated two hours with the chemical substance
1.2: yeast gene YAL060W | yeast gene YDR079W, cells incubated two hours with the chemical substance | yeast gene YDR529C, cells incubated two hours with the chemical substance | yeast gene YGR254W | yeast gene YHR179W | yeast gene YJR009C | yeast gene YLR345W | yeast gene YMR118C | yeast gene YMR205C, cells incubated two hours with the chemical substance | yeast gene YPL275W, cells incubated two hours with the chemical substance
2.2: yeast gene YLR295C, cells incubated two hours with the chemical substance, 25° C., YPD medium
1.3: yeast gene YBR221C, cells incubated two hours with the chemical substance | yeast gene YDL078C, cells incubated two hours with the chemical substance | yeast gene YDR298C, cells incubated two hours with the chemical substance | yeast gene YEL024W, cells incubated two hours with the chemical substance | yeast gene YGL187C, cells incubated two hours with the chemical substance | yeast gene YLR134W, cells incubated two hours with the chemical substance | yeast gene YOR388C, cells incubated two hours with the chemical substance | yeast gene YPL240C
0.8: yeast gene YBR185C, cells incubated two hours with the chemical substance | yeast gene YGR244C | yeast gene YJL216C, cells incubated two hours with the chemical substance | yeast gene YJR048W | yeast gene YJR121W, cells incubated two hours with the chemical substance | yeast gene YKL148C, cells incubated two hours with the chemical substance | yeast gene YKR058W, cells incubated two hours with the chemical substance, 25° C., YPD medium | yeast gene YMR073C, cells incubated two hours with the chemical substance | yeast gene YNL241C
0.9: yeast gene YBR001C, cells incubated two hours with the chemical substance | yeast gene YCR105W, cells incubated two hours with the chemical substance | yeast gene YDR050C, cells incubated two hours with the chemical substance | yeast gene YDR178W, cells incubated two hours with the chemical substance | yeast gene YEL039C, cells incubated two hours with the chemical substance | yeast gene YFL057C | yeast gene YFR053C | yeast gene YGL062W | yeast gene YGL191W, cells incubated two hours with the chemical substance | yeast gene YGR008C | yeast gene YGR043C | yeast gene YLR258W, cells incubated two hours with the chemical substance | yeast gene YML087C | yeast gene YMR261C, cells incubated two hours with the chemical substance | yeast gene YNL202W, cells incubated two hours with the chemical substance | yeast gene YOL165C | yeast gene YPR048W, cells incubated two hours with the chemical substance | yeast gene YPR184W, cells incubated two hours with the chemical substance
